What was measured:
[1] = molecular target: T1, human RORγt (Homo sapiens, UniProt P51449); assay: RORE Luciferase/RORγt transactivation assay; type: cell-based; conditions: COS-7 cells transfected with human IL-17 promoter luciferase reporter and RORγt plasmid; 20 h with compound; read-out: IC50, RORγt activity inhibition
T1 construct: the full-length cDNA of human RORγt; expressed in transfected cells; host or cells: COS-7 (monkey kidney)
T1 sequence (P51449 1-497 isoform P51449-2): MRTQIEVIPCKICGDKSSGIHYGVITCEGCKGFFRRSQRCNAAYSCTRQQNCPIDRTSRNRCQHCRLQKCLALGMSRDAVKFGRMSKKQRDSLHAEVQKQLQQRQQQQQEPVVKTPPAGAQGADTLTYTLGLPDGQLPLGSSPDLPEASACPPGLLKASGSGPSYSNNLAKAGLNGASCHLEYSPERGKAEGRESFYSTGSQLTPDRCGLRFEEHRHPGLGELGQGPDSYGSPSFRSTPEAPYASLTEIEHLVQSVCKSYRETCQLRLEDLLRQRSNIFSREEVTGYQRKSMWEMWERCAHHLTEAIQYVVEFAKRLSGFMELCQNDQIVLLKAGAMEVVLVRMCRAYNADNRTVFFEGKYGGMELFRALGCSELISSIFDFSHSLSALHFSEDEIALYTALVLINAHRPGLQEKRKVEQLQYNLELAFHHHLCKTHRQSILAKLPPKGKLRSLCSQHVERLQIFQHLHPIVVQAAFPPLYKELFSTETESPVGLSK
Summary of the method: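 COS-7 cells were transiently co-transfected with a human IL-17 promoter (RORE/CNS)–luciferase reporter and a RORγt expression plasmid, then seeded at 10000 cells/well in serum-free, phenol red-free DMEM. Compounds were added at 0.3% DMSO final. Luciferase was read with Steady-Glo, and IC50 and Emax were derived.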

[2] = molecular target: T2, RORγt ligand-binding domain (RORγt-LBD) (Homo sapiens, UniProt P51449); assay: Time-resolved FRET (TR-FRET) RORγt coactivator assay; conditions: GST-RORγ-LBD, biotinylated RIP140 peptide, 2 hours at room temperature
T2 construct: 20 nM recombinantly expressed RORγ-LBD fused to GST
T2 sequence (P51449 269-508 limits assumed): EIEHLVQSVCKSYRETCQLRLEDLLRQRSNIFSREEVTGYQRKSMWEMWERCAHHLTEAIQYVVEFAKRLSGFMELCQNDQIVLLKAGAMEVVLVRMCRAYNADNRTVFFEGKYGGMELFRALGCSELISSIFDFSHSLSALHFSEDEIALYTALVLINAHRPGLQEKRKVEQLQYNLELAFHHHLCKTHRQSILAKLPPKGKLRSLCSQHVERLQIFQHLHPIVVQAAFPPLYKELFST
Summary of the method: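 GST-tagged RORγt-LBD (20 nM) with 30 nM biotinylated RIP140-derived peptide, streptavidin-terbium and d2 anti-GST in CHAPS buffer (1 mM DTT, 2 mM EDTA, 0.1% BSA), 1% DMSO. Compounds at 0.3 nM–30 μM final, equilibrated 2 h, room temperature, dark. Coactivator displacement lowers the TR-FRET signal; IC50 (μM) and Emax (%) reported.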

[3] = tested on: IMQ induced psoriasis in mice; assay: Imiquimod (IMQ) induced psoriasis study, cumulative clinical score; type: in vivo, C57BL/6 female mice
Experimental: 8-10 weeks C57BL/6 female mice received a daily topical dose of 62.5 mg/mouse IMQ cream (Aldara® cream 5%; 3M pharmaceuticals, Sweden) on the shaved back and the right ear for 7 consecutive days. Control mice were treated similarly with a control vehicle cream (Vaseline). Test compound (Cpd 24) was orally administered daily from day 0 to day 7 at 3 mg/mL (30 mg/kg). Test compound was given 8 hours before IMQ application. Mice were killed at day 7, 4 h after the last test compound treatment to analyse skin inflammation parameters.
The severity of inflammation of the back skin was determined using the following criteria. An objective scoring system was developed based on the clinical Psoriasis Area and Severity Index (PASI), except that for the mouse model the affected skin area is not taken into account in the overall score. Erythema, scaling, and thickening were scored independently on a scale from 0 to 4: 0: none; 1: slight; 2: moderate; 3: marked; 4: severe. The cumulative score (erythema plus scaling plus thickening) served as a measure of the severity of inflammation (scale 0-12).
Statistical evaluation of differences between the experimental groups was determined by using two-way Anova followed by a Bonferroni post test. *** p<0.001, IMQ-Vehicle compared with treatment.

IC50 [1]: 10 to 100 nM | IC50 [2]: < 10 nM
SMILES: Cc1ccc(C(NC(=O)Cc2ccc3c(c2)CC(=O)N3)c2ccc(C)o2)c(N2CCCCC2)c1 (stereo not shown) [Cpd. 24, N-{[4-methyl-2-(piperidin-1-yl)phenyl](5-methylfuran-2-yl)methyl}-2-(2-oxo-2,3-dihydro-1H-indol-5-yl)acetamide]
adverse effect ([3]; after test compound administration, 30 mg/kg orally daily day 0 to day 7): no adverse effect was observed | cumulative score (erythema plus scaling plus thickening) ([3]; orally 30 mpk, day 5, compared to control treatment): significant decrease

Source: patent US11052092B2, “N-{[2-(piperidin-1-yl)phenyl](phenyl)methyl}-2-(3-oxo-3,4-dihydro-2H-1,4-benzoxazin-7-yl)acetamide derivatives and related compounds as ROR-gamma modulators for treating autoimmune diseases” (Genfit, priority 2017, dated 2021)
